Tests used:
[1] = system: MCF7 Breast Tumour Cell; assay: MCF7 Breast Tumour Cell Proliferation Inhibition; format: cell-based; conditions: Homo sapiens; MCF7 cells
[2] = target: HDAC6 (Homo sapiens (Human), UniProt Q9UBN7); assay: HDAC6 inhibition; format: biochemical
[3] = system: Total HDAC (HeLa Nuclear Extracts); assay: Total HDAC inhibition (HeLa nuclear extracts); format: biochemical
[4] = target: HDAC1 (Homo sapiens (Human), UniProt Q13547); assay: HDAC1 inhibition; format: biochemical
[5] = target: HDAC4 (Homo sapiens (Human), UniProt P56524); assay: HDAC4 inhibition; format: biochemical
[6] = system: TNFα; assay: TNFα inhibition (LPS-stimulated human PBMCs); format: cell-based; conditions: PBMC
[7] = target: HDAC2 (Homo sapiens (Human), UniProt Q92769); assay: HDAC2 inhibition; format: biochemical
[8] = target: HDAC3 (Homo sapiens (Human), UniProt O15379); assay: HDAC3 inhibition; format: biochemical
[9] = target: HDAC9 (Homo sapiens (Human), UniProt Q9UKV0); assay: HDAC9 inhibition; format: biochemical
[10] = target: HDAC10 (Homo sapiens (Human), UniProt Q969S8); assay: HDAC10 inhibition; format: biochemical
[11] = target: HDAC11 (Homo sapiens (Human), UniProt Q96DB2); assay: HDAC11 inhibition; format: biochemical
[12] = target: HDAC8 (Homo sapiens (Human), UniProt Q9BY41); assay: HDAC8 inhibition; format: biochemical
[13] = target: HDAC5 (Homo sapiens (Human), UniProt Q9UQL6); assay: HDAC5 inhibition; format: biochemical

HDAC9, sequence (Q9UKV0 whole entry, species assumed): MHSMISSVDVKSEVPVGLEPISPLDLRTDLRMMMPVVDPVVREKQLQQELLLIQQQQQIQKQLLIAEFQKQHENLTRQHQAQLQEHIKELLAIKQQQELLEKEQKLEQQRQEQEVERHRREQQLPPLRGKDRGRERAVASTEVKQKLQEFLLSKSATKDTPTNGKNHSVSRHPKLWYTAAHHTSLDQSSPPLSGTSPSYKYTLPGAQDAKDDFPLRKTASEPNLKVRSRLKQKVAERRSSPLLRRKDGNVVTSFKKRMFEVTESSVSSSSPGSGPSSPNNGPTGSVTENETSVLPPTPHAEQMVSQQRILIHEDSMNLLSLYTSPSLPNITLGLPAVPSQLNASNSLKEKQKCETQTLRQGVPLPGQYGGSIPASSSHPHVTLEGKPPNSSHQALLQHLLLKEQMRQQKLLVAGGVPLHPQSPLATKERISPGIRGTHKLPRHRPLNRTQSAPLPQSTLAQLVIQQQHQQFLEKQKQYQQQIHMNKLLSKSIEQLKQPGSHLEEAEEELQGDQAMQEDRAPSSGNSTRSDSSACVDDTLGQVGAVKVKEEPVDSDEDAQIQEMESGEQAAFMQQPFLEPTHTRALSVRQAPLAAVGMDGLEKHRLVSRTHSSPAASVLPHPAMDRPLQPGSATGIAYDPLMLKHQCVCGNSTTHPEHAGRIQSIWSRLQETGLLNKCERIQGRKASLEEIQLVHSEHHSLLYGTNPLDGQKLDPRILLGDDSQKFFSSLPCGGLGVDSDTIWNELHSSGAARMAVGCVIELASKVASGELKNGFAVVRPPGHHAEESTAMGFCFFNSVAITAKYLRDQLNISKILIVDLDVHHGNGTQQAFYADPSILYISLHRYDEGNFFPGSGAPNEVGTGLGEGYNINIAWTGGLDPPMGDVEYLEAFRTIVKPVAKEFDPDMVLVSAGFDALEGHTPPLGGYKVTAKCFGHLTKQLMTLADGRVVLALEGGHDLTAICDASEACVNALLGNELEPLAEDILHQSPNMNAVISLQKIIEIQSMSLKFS
HDAC2, sequence (Q92769 whole entry, species assumed): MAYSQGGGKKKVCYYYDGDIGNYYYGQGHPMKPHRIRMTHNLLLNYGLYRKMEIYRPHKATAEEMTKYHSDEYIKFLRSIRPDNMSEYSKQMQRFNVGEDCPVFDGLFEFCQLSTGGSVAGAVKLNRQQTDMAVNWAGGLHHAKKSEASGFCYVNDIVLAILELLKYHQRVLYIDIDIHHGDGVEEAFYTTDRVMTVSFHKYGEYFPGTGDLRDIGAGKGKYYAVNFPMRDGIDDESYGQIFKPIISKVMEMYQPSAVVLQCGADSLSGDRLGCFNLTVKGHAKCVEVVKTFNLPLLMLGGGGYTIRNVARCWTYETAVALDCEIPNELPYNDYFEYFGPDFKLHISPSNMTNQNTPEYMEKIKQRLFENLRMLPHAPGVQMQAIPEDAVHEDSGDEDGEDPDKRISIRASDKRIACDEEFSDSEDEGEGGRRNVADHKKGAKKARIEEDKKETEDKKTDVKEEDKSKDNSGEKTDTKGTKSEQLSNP
HDAC1, sequence (Q13547 whole entry, species assumed): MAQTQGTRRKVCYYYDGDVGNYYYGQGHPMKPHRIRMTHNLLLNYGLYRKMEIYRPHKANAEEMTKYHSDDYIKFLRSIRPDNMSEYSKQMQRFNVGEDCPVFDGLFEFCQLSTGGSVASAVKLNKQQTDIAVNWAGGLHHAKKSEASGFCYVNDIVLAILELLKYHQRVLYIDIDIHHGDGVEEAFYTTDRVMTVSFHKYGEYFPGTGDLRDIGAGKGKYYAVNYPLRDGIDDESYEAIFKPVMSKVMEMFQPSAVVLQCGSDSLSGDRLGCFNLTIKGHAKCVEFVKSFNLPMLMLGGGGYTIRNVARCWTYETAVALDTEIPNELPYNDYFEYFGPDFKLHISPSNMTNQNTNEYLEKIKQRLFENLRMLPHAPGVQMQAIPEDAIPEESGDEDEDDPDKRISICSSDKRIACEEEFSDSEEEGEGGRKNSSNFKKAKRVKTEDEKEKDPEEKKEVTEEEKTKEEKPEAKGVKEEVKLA
HDAC6, sequence (Q9UBN7 whole entry, species assumed): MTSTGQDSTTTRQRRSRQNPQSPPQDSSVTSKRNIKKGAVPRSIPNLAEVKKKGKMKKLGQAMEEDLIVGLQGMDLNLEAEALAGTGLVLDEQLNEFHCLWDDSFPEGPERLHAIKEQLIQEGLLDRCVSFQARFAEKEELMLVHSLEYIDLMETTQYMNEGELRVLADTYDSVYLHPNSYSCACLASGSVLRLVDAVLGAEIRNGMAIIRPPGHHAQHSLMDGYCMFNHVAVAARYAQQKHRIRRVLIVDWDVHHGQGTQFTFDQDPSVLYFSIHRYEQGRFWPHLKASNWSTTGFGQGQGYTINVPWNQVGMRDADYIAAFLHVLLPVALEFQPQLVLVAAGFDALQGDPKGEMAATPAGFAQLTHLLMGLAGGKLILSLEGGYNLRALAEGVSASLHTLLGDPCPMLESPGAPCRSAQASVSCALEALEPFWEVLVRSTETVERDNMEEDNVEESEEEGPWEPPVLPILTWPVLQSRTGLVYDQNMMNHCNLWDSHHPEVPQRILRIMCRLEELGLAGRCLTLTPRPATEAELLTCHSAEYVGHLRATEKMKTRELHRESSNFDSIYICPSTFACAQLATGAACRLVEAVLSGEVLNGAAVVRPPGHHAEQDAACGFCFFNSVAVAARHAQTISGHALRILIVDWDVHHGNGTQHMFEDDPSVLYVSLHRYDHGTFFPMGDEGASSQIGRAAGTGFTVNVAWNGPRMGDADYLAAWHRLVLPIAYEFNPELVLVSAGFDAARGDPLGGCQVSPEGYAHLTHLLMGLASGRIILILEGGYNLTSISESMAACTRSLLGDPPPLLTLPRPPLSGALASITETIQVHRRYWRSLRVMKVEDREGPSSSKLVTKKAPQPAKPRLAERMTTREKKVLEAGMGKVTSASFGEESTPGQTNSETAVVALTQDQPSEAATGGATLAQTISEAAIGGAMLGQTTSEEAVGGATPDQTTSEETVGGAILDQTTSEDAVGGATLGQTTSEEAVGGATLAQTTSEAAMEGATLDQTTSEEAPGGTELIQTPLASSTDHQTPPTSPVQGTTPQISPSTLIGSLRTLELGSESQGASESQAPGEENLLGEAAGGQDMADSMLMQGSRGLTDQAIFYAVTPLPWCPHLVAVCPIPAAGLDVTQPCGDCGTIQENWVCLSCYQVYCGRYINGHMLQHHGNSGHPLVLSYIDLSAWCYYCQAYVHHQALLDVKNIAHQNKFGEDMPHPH
HDAC3, sequence (O15379 whole entry, species assumed): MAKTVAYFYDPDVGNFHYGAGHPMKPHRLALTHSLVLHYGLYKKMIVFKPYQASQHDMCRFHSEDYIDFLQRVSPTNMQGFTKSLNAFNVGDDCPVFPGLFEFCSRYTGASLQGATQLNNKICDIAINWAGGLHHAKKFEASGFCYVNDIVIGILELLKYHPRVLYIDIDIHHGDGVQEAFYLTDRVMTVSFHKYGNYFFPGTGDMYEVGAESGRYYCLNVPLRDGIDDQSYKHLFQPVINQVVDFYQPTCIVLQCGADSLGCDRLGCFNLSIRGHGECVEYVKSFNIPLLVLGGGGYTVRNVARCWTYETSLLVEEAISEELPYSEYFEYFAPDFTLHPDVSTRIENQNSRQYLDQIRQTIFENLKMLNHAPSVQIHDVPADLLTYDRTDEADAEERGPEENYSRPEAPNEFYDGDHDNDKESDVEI
HDAC3, sequence (Q9Y618 395-489 partner, species assumed): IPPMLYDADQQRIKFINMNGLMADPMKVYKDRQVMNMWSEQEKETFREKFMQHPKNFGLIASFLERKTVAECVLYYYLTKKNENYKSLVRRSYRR
HDAC4, sequence (P56524 whole entry, species assumed): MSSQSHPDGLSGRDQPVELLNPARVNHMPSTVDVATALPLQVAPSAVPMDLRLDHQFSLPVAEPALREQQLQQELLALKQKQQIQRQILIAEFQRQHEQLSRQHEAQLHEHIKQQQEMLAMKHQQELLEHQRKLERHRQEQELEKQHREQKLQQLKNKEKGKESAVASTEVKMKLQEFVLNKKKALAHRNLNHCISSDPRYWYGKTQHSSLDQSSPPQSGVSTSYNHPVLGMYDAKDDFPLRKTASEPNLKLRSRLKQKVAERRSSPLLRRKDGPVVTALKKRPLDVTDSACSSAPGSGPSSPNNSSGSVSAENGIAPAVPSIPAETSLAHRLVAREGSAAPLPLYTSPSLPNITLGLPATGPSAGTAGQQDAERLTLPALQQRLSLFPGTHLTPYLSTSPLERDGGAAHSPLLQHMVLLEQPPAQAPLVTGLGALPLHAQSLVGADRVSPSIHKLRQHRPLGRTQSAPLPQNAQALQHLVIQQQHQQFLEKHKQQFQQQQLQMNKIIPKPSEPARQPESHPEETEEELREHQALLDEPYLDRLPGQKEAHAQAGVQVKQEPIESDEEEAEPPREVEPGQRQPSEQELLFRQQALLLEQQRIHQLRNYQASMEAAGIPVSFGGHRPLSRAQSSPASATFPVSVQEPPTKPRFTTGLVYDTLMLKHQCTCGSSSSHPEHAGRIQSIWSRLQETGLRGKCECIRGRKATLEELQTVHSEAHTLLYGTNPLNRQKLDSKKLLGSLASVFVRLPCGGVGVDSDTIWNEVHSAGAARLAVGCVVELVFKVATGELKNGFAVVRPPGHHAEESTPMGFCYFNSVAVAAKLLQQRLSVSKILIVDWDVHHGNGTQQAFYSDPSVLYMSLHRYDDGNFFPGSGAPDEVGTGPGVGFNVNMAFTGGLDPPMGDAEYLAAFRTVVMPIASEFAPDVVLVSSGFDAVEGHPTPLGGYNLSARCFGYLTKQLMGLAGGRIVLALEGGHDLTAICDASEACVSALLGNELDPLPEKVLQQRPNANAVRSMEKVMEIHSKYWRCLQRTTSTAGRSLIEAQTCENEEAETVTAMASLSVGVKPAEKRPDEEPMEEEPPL

| Compound | IC50 [1] [nM] | IC50 [2] [nM] | IC50 [3] [nM] | IC50 [4] [nM] | further results |
| --- | --- | --- | --- | --- | --- |
| O=C(CCCCC=C(c1ccccn1)c1ccccn1)NO [Example 1, N-Hydroxy-7,7-di(pyridin-2-yl)hept-6-enamide] | 600 | 68 | 950 | 158 | – |
| O=C(CCCCCN(c1ccccn1)c1ccccn1)NO [Example 2, 6-(Dipyridin-2-ylamino)-N-hydroxyhexanamide] | 2340 | – | 2490 | – | – |
| O=C(CCCCCCN(c1ccccn1)c1ccccn1)NO [Example 3, 7-(Dipyridin-2-ylamino)-N-hydroxyheptanamide] | – | 9 | 245 | – | IC50 [5]: 307 nM; IC50 [6]: 100 nM; IC50 [7]: 1540 nM; IC50 [8]: 710 nM |
| O=C(CCCCCCN(c1ccccn1)c1ccc2ccccc2n1)NO [Example 4, N-Hydroxy-7-(pyridin-2-yl(quinolin-2-yl)amino)heptanamide] | – | 16 | 81 | 71 | IC50 [9]: 90 nM; IC50 [10]: 126 nM; IC50 [11]: 112 nM; IC50 [12]: 312 nM; IC50 [5]: 545 nM; IC50 [13]: 123 nM; IC50 [7]: 212 nM; IC50 [8]: 62 nM |
| O=C(CCCCCC=C(c1ccccn1)c1ccccn1)NO [Example 5, N-Hydroxy-8,8-di(pyridin-2-yl)oct-7-enamide] | – | 22 | 415 | 642 | – |
| O=C(CCCCCCC(c1ccccn1)c1ccccn1)NO [Example 6] | 445 | – | – | – | – |
| Cc1ccnc(N(CCCCCCC(=O)NO)c2ccccn2)c1 [Example 7, N-Hydroxy-7-((4-methylpyridin-2-yl)(pyridin-2-yl)amino)heptanamide] | 448 | – | 778 | – | – |
| O=C(CCCCCCN(c1ccccn1)c1cc(-c2ccccc2)ccn1)NO [Example 8, N-Hydroxy-7-((4-phenylpyridin-2-yl)(pyridin-2-yl)amino)heptanamide] | 1050 | 19 | 493 | 116 | – |
| Cc1ccc(N(CCCCCCC(=O)NO)c2ccccn2)nc1 [Example 9, N-Hydroxy-7-((5-methylpyridin-2-yl)(pyridin-2-yl)amino)heptanamide] | 697 | 31 | 337 | 453 | IC50 [9]: 759 nM; IC50 [7]: 1140 nM |
| O=C(CCCCCCN(c1ccccn1)c1ccc(OCc2ccccc2)cn1)NO [Example 10, 7-((5-(Benzyloxy)pyridin-2-yl)(pyridin-2-yl)amino)-N-hydroxyheptanamide] | 285 | 57 | 1070 | 182 | – |
| COc1ccc(N(CCCCCCC(=O)NO)c2ccccn2)nc1 [Example 11, N-Hydroxy-7-((5-methoxypyridin-2-yl)(pyridin-2-yl)amino)heptanamide] | 292 | 13 | 406 | 182 | IC50 [9]: 759 nM; IC50 [7]: 883 nM |
| O=C(CCCCCCN(c1ccccn1)c1ccc(-c2ccccc2)cn1)NO [Example 12, N-Hydroxy-7-((5-phenylpyridin-2-yl)(pyridin-2-yl)amino)heptanamide] | 81 | – | 310 | – | – |
| O=C(CCCCCCN(c1ccccn1)c1ccc(-c2ccc(F)cc2)cn1)NO [Example 13, 7-((5-(4-Fluorophenyl)pyridin-2-yl)(pyridin-2-yl)amino)-N-hydroxyheptanamide] | 357 | – | 521 | – | – |
| O=C(CCCCCCN(c1ccccn1)c1cc2ccccc2cn1)NO [Example 14, 7-(Isoquinolin-3-yl-pyridin-2-yl-amino)-heptanoic acid hydroxyamide] | 169 | 2 | 337 | 64 | IC50 [9]: 145 nM; IC50 [7]: 306 nM |
| O=C(CCCCCCN(c1ccccn1)c1cc(OCc2ccccc2)ccn1)NO [Example 15, 7-[(4-Benzyloxy-pyridin-2-yl)-pyridin-2-yl-amino]-heptanoic acid hydroxyamide] | 411 | 3 | 1260 | 151 | IC50 [9]: 423 nM; IC50 [7]: 612 nM |
| COc1ccnc(N(CCCCCCC(=O)NO)c2ccccn2)c1 [Example 16, 7-[(4-Methoxy-pyridin-2-yl)-pyridin-2-yl-amino]-heptanoic acid hydroxyamide] | 1090 | – | 1080 | – | – |
| CCOc1ccnc(N(CCCCCCC(=O)NO)c2ccccn2)c1 [Example 17, 7-[(4-Ethoxy-pyridin-2-yl)-pyridin-2-yl-amino]-heptanoic acid hydroxyamide] | 456 | – | 598 | – | – |
| CCCOc1ccnc(N(CCCCCCC(=O)NO)c2ccccn2)c1 [Example 18, 7-[(4-Propoxy-pyridin-2-yl)-pyridin-2-yl-amino]-heptanoic acid hydroxyamide] | 574 | – | 822 | – | – |
| CC(C)Oc1ccnc(N(CCCCCCC(=O)NO)c2ccccn2)c1 [Example 19, 7-[(4-Isopropoxy-pyridin-2-yl)-pyridin-2-yl-amino]heptanoic acid hydroxyamide] | 478 | – | 326 | – | – |
| O=C(CCCCCCN(c1cccnc1)c1ccccn1)NO [Example 20, 7-(Pyridin-3-yl-pyridin-2-yl-amino)-heptanoic acid hydroxyamide] | – | – | 539 | – | – |
| O=C(CCCCCCN(c1ccccn1)c1cc(-c2ccc(F)cc2)ccn1)NO [Example 21, 7-{[4-(4-Fluoro-phenyl)-pyridin-2-yl]-pyridin-2-yl-amino}-heptanoic acid hydroxyamide] | – | – | 1080 | – | – |
| Nc1ccc(-c2ccnc(N(CCCCCCC(=O)NO)c3ccccn3)c2)cc1 [Example 22, 7-{[4-(4-Amino-phenyl)-pyridin-2-yl]-pyridin-2-yl-amino}-heptanoic acid hydroxyamide] | 39 | – | 298 | – | – |
| Cc1ccc(-c2ccnc(N(CCCCCCC(=O)NO)c3ccccn3)c2)cc1 [Example 23, 7-[Pyridin-2-yl-(4-p-tolyl-pyridin-2-yl)-amino]-heptanoic acid hydroxyamide] | 77 | – | 1060 | – | – |
| Cc1ccccc1-c1ccnc(N(CCCCCCC(=O)NO)c2ccccn2)c1 [Example 24, 7-[Pyridin-2-yl-(4-o-tolyl-pyridin-2-yl)-amino]-heptanoic acid hydroxyamide] | 200 | – | 1620 | – | – |
| O=C(CCCCCCN(c1ccccn1)c1cc(-c2ccccc2Cl)ccn1)NO [Example 25, 7-{[4-(2-Chloro-phenyl)-pyridin-2-yl]-pyridin-2-yl-amino}-heptanoic acid hydroxyamide] | 210 | – | 1080 | – | – |
| O=C(CCCCCCN(c1ccccn1)c1cc(-c2ccccc2F)ccn1)NO [Example 26, 7-{[4-(2-Fluoro-phenyl)-pyridin-2-yl]-pyridin-2-yl-amino}-heptanoic acid hydroxyamide] | 200 | – | – | – | – |
| Cc1cccc(-c2ccnc(N(CCCCCCC(=O)NO)c3ccccn3)c2)c1 [Example 27, 7-[Pyridin-2-yl-(4-m-tolyl-pyridin-2-yl)-amino]-heptanoic acid hydroxyamide] | 81 | – | 1680 | – | – |
